From patent US11292758B2, “Compounds and methods for delivery of prostacyclin analogs” (United Therapeutics Corporation, priority 2003, dated 2022)
Like-named read-outs stand apart in the source and are kept apart here.

Tests used:
[1] = test system: Caco-2 cell monolayers; assay: Permeability across Caco-2 cell monolayers; format: in vitro ADME
Text: (§1) There are two major barriers to deliver treprostinil in the circulatory system. One of these barriers is that treprostinil undergoes a large first pass effect. […] The permeability of treprostinil has been measured across Caco-2 cell monolayers. […] It is believed that the p-glycoprotein efflux pump prevents certain pharmaceutical compounds from traversing the mucosal cells of the small intestine and, therefore, from being absorbed into systemic circulation.

[2] = First pass effect on circulating through the liver; format: in vivo
Text: as §1

[3] = Skin contact irritation testing
Text: In contrast, some of the compounds disclosed herein, generally as prodrugs of treprostinil, are not irritating to the skin. Accordingly, the present compounds are well suited for topical or transdermal administration.

[4] = rat, in vivo
[5] = in vivo; details: male, Sprague-Dawley, rat
[6] = Bioavailability and pharmacokinetics of treprostinil in rats after intravenous, intraportal vein, intraduodenal, intracolonic and oral dosing (Example 1); details: rats dosed via the portal vein, 1 mg/kg, before the thirty-minute sample
[7] = male, Sprague-Dawley, iv, 1 mg/kg
[8] = 1 mg/kg, Average (n = 3) plasma concentrations
[9] = 1 mg/kg, Average plasma concentrations
[10] = iv, 1 mg/kg, Average (n = 3) plasma concentrations
[11] = po, 1 mg/kg, Average (n = 3) plasma concentrations

What does the source list for `CCCCC[C@H](O)CC[C@@H]1[C@H]2Cc3cccc(OCC(=O)O)c3C[C@H]2C[C@H]1O` [Treprostinil, treprostinil]?
apical to basal transport rate [1]: 1.39e-06 cm/s; basal to apical transport rate [1]: 1.23e-05 cm/s; absorbed dose left after first pass [2]: about 40%; treprostinil plasma levels metabolized upon first circulating through the liver [2]: about 60%; skin irritation upon skin contact [3]: can be irritating upon skin contact; compound absorbed in the intestine ([4]; male, Sprague-Dawley): approximately 60%; Tmax ([4]; male, Sprague-Dawley, 1 mg/kg): 2 min; Average (n = 3) plasma concentrations ([4]; male, Sprague-Dawley, 1 mg/kg, 360 min): 0.06^λ ng/mL; Average (n = 3) plasma concentrations ([4]; male, Sprague-Dawley, 1 mg/kg, 480 min): 0.20^λ ng/mL; CLs [4, 7]: 88.54 mL/min/kg; Volume of Distribution [4, 7]: 1.98 L/kg; distribution and elimination of the compound that occurs by 60 minutes post-dosing ([4]; male, Sprague-Dawley, iv, 60 min): over 90%; Clinical observations ([4]; iv, 1 mg/kg): extreme lethargy; concentration at 360 min [5, 8]: 0.89 ng/mL; concentration at 480 min [5, 8]: 0.9 ng/mL; concentration at 2 min [5, 9]: 302 ng/mL; concentration at 5 min [5, 9]: 97.4 ng/mL; concentration at 15 min [5, 9]: 48 ng/mL; concentration at 30 min [5, 9]: 21.9 ng/mL; concentration at 60 min [5, 9]: 11.1 ng/mL; concentration at 120 min [5, 9]: 3.87 ng/mL; concentration at 240 min [5, 9]: 2.51 ng/mL; concentration at 360 min [5, 9]: 4.95 ng/mL; concentration at 480 min [5, 9]: 5.14 ng/mL; Tmax [5]: ≤ 5 min; Vd ([5]; iv, 1 mg/kg): 1.98 L/kg; clearance ([5]; iv, 1 mg/kg): 88.5 mL/min/kg; concentration at 2 min [5, 10]: 1050 ng/mL; concentration at 5 min [5, 10]: 364 ng/mL; concentration at 15 min [5, 10]: 131 ng/mL; concentration at 30 min [5, 10]: 55.6 ng/mL; concentration at 60 min [5, 10]: 14.4 ng/mL; concentration at 120 min [5, 10]: 4.45 ng/mL; concentration at 240 min [5, 10]: 1.09 ng/mL; concentration at 360 min [5, 10]: 0.5 ng/mL; concentration at 480 min [5, 10]: 0.3 ng/mL; AUC(0-t) ([5]; iv, 1 mg/kg, Average AUC480 min): 188 ng·h/mL; Cmax ([5]; iv, 1 mg/kg): 2120 ng/mL; AUC(0-t) ([5]; iv, 1 mg/kg, Individual AUC480 min): 172 ng·h/mL; Tmax ([5]; iv, 1 mg/kg): 0 min; half-life ([5]; iv, 1 mg/kg, T½ (terminal plasma half-life)): 94 min; half-life ([5]; iv, 1 mg/kg, half-life of the distribution phase): 10.3 min; concentration at 5 min [5, 11]: 4.52 ng/mL; concentration at 15 min [5, 11]: 2.9 ng/mL; concentration at 30 min [5, 11]: 3.67 ng/mL; concentration at 60 min [5, 11]: 2.06 ng/mL; concentration at 120 min [5, 11]: 4.52 ng/mL; concentration at 240 min [5, 11]: 1.82 ng/mL; concentration at 360 min [5, 11]: 0.9 ng/mL; concentration at 480 min [5, 11]: 0.96 ng/mL; AUC(0-t) ([5]; po, 1 mg/kg, Average AUC480 min): 17.3 ng·h/mL; bioavailability ([5]; po, 1 mg/kg, Average Bioavailability (%) ± SD): 9.2 ± 1.4%; Cmax ([5]; po, 1 mg/kg): 5 ng/mL; AUC(0-t) ([5]; po, 1 mg/kg, Individual AUC480 min): 16.6 ng·h/mL; bioavailability ([5]; po, 1 mg/kg, Individual Bioavailability): 8.9%; Tmax ([5]; po, 1 mg/kg): 5 min; Mortality [6]: One rat (#123) expired
